Earlier results, collected in US20020099506A1, “Methods and apparatus for predicting ligand binding interactions” (priority 2000, published 2002).
“Also recorded” adds a separate entry of the source.

test system: olfactory receptor S18; details: according to Malnic et al.

experimental response of S18	Structure (SMILES)
responds experimentally	CCCCCCC(=O)O [heptanoic acid]
responds experimentally	CCCCCCCCC(=O)O [nonanoic acid]
responds experimentally	CCCCCCCCCO [nonanol]
responds experimentally	CCCCCCCC(=O)O [octanoic acid]

The remaining lines, values behind:

Structure (SMILES)	experimental response of S18
O=C(O)CCCCCCCBr [8-bromo-octanoic acid]	responds experimentally
CCCCCCCCO [octanol]	responds experimentally

test system: histdyl t-RNA synthetase; details: not given

Structure (SMILES)	recognition by the enzyme (experimental observations)
N[C@@H](Cc1c[nH]cn1)C(=O)O [histidine]	the only ligand recognized by this enzyme

test system: olfactory receptor S25 (OR S25); details: data of Malnic et al.; 24 odorants of 4-9 carbon atoms

Structure (SMILES)	experimental odor response of S25
CCCCCCCO [heptanol]	responds positively; also recorded: elicited measurable responses
CCCCCCO [hexanol]	responds positively; also recorded: elicited measurable responses
